The record followed here is patent US5856310A, “Inhibition of farnesyltransferase” (University of Pittsburgh, priority 1995, dated 1999).

Like-named read-outs stand apart in the source and are kept apart here. Peptide text beside a SMILES is read from it. * marks the point of attachment. Cbz = O=C(OCc1ccccc1)* Bounds are passed on as bounds.

Assay [1] concerns the target T1, p21ras farnesyltransferase from Burkitt's lymphoma (Daudi) (Homo sapiens, UniProt P49354+P49356).
T1 construct: Partially purified p21ras farnesyltransferase from human tumors; endogenous in cells; host or cells: Daudi Burkitt's lymphoma cells
As to the kind of experiment: p21ras farnesyltransferase activity assay, enzyme from Daudi. Format: biochemical. The method, then:
(§1) Human colon carcinoma COLO-205 cells (ATCC, Rockville, Md.) were grown to confluency in RPMI containing 10% FBS, 1% penicillin/streptomycin at 37° C and 10% Co2 atmosphere. The cells were homogenized in lysis buffer (10 mM Hepes pH 7.4, 1 mM MgCl2, 1 mM EDTA, 0.1 mM DDT, and 0.1 mM PMSF) and centrifuged at 12,000×g followed by a 60,000×g centrifugation of the supernatant. p21ras farnesyltransferase from 60,000×g supernatant fractions was then partially purified by DEAE-sephacel chromatography where it was eluted with 50 mM Tris (pH 7.5) containing 0.4M NaCl. p21ras farnesyltransferase activity was determined by measuring the amount of [3H]FPP transferred to recombinant p21H-ras as previously described (15,16). p21H-ras was isolated from E. coli strain RRI expressing p21H-ras (Hoffman-LaRoche, Inc.) as described previously (25) except for the last step of purification where HPLC was replaced by DEAE-sephacel chromatography. For peptide inhibition studios, CA1 A2 X peptides and peptidomimetics were premixed with p21ras farnesyltransferase (40 μg) prior to adding the reaction mixture (50 Mm Tris (pH. 7.5), 50 μM ZnCl2, 20 mM KCl, 1 mM DTT, 20 μM p21H-ras, 9 mmol [3H]FPP). After incubation for one hour at 37° C., the reaction was stopped and filtered on glass fibers as described earlier (15,16).
(§2) To determine the potency of the novel peptidomimetics relative to their parent tetrapeptides, the potency of CA1 A2 X corresponding to the carboxyl terminus ends of p21 KA -ras, p21 KB -ras and p21N-ras to inhibit p21ras farnesyltransferase from human colon carcinoma (COLO-205) and Burkitt's lymphoma (Daudi) was determined.

Assay [2] addresses T2, p21ras farnesyltransferase from EJ3 cells (Mus musculus, UniProt Q61239+Q8K2I1).
T2 construct: p21ras farnesyltransferase was partially purified from EJ3 cells by DEAE-chromatography; endogenous in cells; host or cells: EJ3 cells (H-ras-transformed Balb/c 3T3 murine fibroblasts)
The assay can be described thus: p21ras farnesyltransferase inhibition, enzyme from EJ3 cells. The format is biochemical, murine. The protocol:
as §1, with “earlier (15,16). […] The results for C-AMBA-M (.quadrature.), CVIM (.circle-solid.), CIIM (Δ), CVVM (.gradient.) and VCIM (.smallcircle.) are indicated in FIG. 1. The data presented is representative of three independent experiments.” for “earlier (15,16).”
The ability of CA1 A2 X tetrapeptides, peptidomimetics and corresponding functionalized derivatives to inhibit p21ras farnesyltransferase from EJ3 cells was determined in vitro as described above (Example 9). p21ras farnesyltransferase was partially purified from EJ3 cells by DEAE-chromatography as described above (Example 9) and incubated with various concentrations of peptides and peptidomimetics. The ability of these drugs to inhibit the transfer of [3H]FPP to recombinant p21ras was determined as described (Example 9).

Assay [3] has as its target T3, p21ras farnesyltransferase from human colon carcinoma (COLO-205) (Homo sapiens, UniProt P49354+P49356).
T3 construct: p21ras farnesyltransferase from 60,000×g supernatant fractions was then partially purified by DEAE-sephacel chromatography; endogenous in cells; host or cells: COLO-205 human colon carcinoma cells (cytosolic 60,000×g supernatant, DEAE-sephacel fraction)
The assay can be described thus: p21ras farnesyltransferase activity assay, enzyme from COLO-205. Conditions: for inhibition of p21ras farnesyltransferase (in words): human tumor enzyme (COLO-205 and Daudi), concentrations as high as 10 μM. Format: biochemical. The method, then:
as §1, §2

In assay [4] the test system is Ras oncogene-transformed EJ3 cells. Format: cell-based, murine. The method, then: (§3) The ability of the peptides and their bis-carbobenzyloxy methyl ester derivatives (using BBM-CA1 A2 X; BBM-C-AMBA-M as examples) to inhibit tumor cell growth was determined by the well-known MTT assay. Ras oncogene-transformed EJ3 cells (a balbc 3T3 murine fibroblast (A-31) transformed with H-ras oncogene from a human bladder carcinoma) were exposed to various concentrations of peptides, peptidomimetics and their functionalized derivatives. Four days later, the percentage of live cells present relative to control was determined for each drug concentration. The extent of cell proliferation in the absence of drug was used as 100% proliferation.

The test system of another assay is A-31 cells. As to the kind of experiment: Cell growth inhibition, MTT assay, A-31 cells. Format: cell-based, murine. Conditions: concentrations of 500 μM, FIG. 7B. The method, then: as §3
An important aspect of the invention is the finding that the antitumor activity of the peptidomimetics of the invention are selective for ras-transformed cells as compared to their non-transformed parent cell line. A-31 is a normal, non-tumorigenic cell line clone from balb murine fibroblasts. EJ3 is a tumorigenic (produces tumors when injected into mice) cell line that was obtained by transforming A-31 cells with H-ras isolated from a human bladder tumor. The ability of BBM-peptides and peptidomimetics to inhibit cell growth of these two related cell lines (A-31 and EJ3) was determined by MTT assay as described above.

Assay [5] has as its system p21ras plasma membrane association in EJ3 cells. As to the kind of experiment: p21ras membrane association in EJ3 cells (immunoprecipitation, Western blot). The format is cell-based, murine. Conditions: FIG. 6. The source says:
This is indicated by FIG. 6. EJ3 cells were exposed to saline, lovastatin, C-AMBA-M or BBM-C-AMBA-M and p21ras immunoprecipitated with the anti-ras antibody Y13-259 (Oncogene Science Inc.). Membrane-bound and cytosolic p21ras were separated by SDS-PAGE and Western blotted with an anti-p21ras antibody (Y13-259). Control cells (saline-treated) contained only membrane-bound p21ras.

Setting [6] is: read-out: IC50, p21ras farnesyltransferase from Daudi.
Where [7] appears, read: Table 2, read-out: IC50 (uM) Farnesyltransferase.
The mark [8] stands for this setting: partially purified enzyme from COLO-205, transfer of farnesyl to recombinant p21 H-ras, read-out: IC50 (μM) COLO-205.
Where [9] appears, read: partially purified enzyme from Daudi, transfer of farnesyl to recombinant p21 H-ras, read-out: IC50 (μM) Daudi.
Where [10] appears, read: enzyme from EJ3 cells, FIG. 5A/5B, read-out: p21ras farnesyltransferase IC50.
The mark [11] stands for this setting: Table 2, ras oncogene-transformed cells, read-out: IC50 (uM) Growth Studies.
[12] abbreviates: MTT, four days, FIG. 4A/4B, read-out: EJ3 cell growth inhibition IC50.

T2 sequence (Q8K2I1 whole entry, one chain of several): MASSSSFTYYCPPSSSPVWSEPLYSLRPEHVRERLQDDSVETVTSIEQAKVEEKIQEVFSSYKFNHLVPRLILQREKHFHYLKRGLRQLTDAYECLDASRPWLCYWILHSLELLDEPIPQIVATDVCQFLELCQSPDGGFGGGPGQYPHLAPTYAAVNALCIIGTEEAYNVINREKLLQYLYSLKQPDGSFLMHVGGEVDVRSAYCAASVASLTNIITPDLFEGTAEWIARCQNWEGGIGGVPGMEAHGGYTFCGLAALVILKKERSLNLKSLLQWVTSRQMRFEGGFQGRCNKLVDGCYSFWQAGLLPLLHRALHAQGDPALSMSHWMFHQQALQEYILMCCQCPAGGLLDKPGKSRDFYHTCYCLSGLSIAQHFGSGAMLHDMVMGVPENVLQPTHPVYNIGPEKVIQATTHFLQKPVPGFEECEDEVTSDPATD
T1 sequence (P49356 whole entry, one chain of several): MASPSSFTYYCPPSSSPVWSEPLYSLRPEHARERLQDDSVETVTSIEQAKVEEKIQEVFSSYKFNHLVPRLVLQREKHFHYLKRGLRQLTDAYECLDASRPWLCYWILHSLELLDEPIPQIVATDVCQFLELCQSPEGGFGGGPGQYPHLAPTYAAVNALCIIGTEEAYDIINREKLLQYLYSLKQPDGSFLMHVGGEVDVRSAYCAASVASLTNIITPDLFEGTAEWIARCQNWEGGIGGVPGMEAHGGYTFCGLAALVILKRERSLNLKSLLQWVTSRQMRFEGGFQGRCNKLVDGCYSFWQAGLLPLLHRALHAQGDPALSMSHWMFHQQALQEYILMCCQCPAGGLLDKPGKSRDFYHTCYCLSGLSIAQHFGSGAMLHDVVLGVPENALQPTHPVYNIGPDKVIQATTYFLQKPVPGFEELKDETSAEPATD

For the compound `CC[C@H](C)[C@H](NC(=O)[C@@H](NC(=O)[C@@H](N)CS)C(C)C)C(=O)N[C@@H](CCSC)C(=O)O` [CVIM, Cys-Val-Ile-Met, reference compound] (H-CVIM-OH), the IC50 in assay [1] (setting [6]) amounted to 0.19 µM; in assay [2] (setting [7]), 0.35 µM; in assay [2] (enzyme from EJ3 cells, FIG. 5A, read-out: p21ras farnesyltransferase IC50), 0.4 µM.
With `CC(C)C[C@H](NC(=O)c1cccc(CNC(=O)[C@@H](N)CS)c1)C(=O)O` [C-AMBA-L, Cys-AMBA-Leu], the “inhibition of p21ras farnesyltransferase (in words)” value in assay [3] is reported as “had no inhibitory activity”. Besides, the IC50 in assay [3] (setting [8]) and in assay [1] (setting [9]) was above 10 µM each time.
For the compound `CSCC[C@H](NC(=O)[C@@H](NC(=O)[C@@H](NC(=O)[C@@H](N)CS)C(C)C)C(C)C)C(=O)O` [CVVM, Cys-Val-Val-Met, reference compound] (H-CVVM-OH), the IC50 in assay [3] (setting [8]) was 0.46 µM; in assay [1] (setting [9]), 0.61 µM.
With `CC[C@H](C)[C@H](NC(=O)[C@H](CS)NC(=O)[C@@H](N)C(C)C)C(=O)N[C@@H](CCSC)C(=O)O` [VCIM, reference compound] (H-VCIM-OH), the IC50 in assay [3] (setting [8]) was above 10 µM; in assay [1] (setting [9]), above 10 µM; in assay [2] (setting [7]), 40 µM; in assay [2] (setting [10]) it was above 10 µM.
On to `O=C(N[C@@H](CSC(=O)OCc1ccccc1)C(=O)O)OCc1ccccc1` [BB-Cys, N S-DiCBZ-cysteine], for which the IC50 in assay [4] (setting [11]) was 275 ± 41 µM.
For `CC[C@H](C)[C@H](NC(=O)[C@@H](NC(=O)[C@H](CSC(=O)OCc1ccccc1)NC(=O)OCc1ccccc1)C(C)C)C(=O)N[C@@H](CCSC)C(=O)OC` [BBM-CVIM] (Cbz-C(Cbz)VIM-OMe), the values for the IC50 in assay [2] (setting [7]) and in assay [2] (setting [10]) were above 100 µM and above 10 µM, respectively.
For Ser-AMBA-Met [S-AMBA-M], the “inhibition of p21ras farnesyltransferase (in words)” value in assay [3] is “did not inhibit”. The IC50 in assay [3] (setting [8]) and in assay [1] (setting [9]) was above 10 µM throughout.
As to `NCCCC[C@H](NC(=O)c1cccc(CNC(=O)[C@@H](N)CS)c1)C(=O)O` [C-AMBA-K, Cys-AMBA-Lys], the “inhibition of p21ras farnesyltransferase (in words)” value in assay [3] is “abolished p21ras farnesyltransferase inhibition activity”. Also, the IC50 in assay [3] (setting [8]) and in assay [1] (setting [9]) was above 10 µM throughout.
In the case of `COC(=O)[C@H](CCSC)NC(=O)c1cccc(CNC(=O)[C@H](CSC(=O)OCc2ccccc2)NC(=O)OCc2ccccc2)c1` [BBM-C-AMBA-M, N, S-DiCBZ-Cys-AMBA-Met-OCH3], the IC50 in assay [4] (setting [12]) was 10 µM; in assay [4] (MTT, selectivity study, FIG. 7A/7B, read-out: EJ3 cell growth inhibition IC50) it was 20 µM; in assay [4] (setting [11]), 12.1 ± 1 µM; in assay [2] (setting [7]), above 100 µM; in assay [2] (setting [10]) it was above 100 µM. Further, the “effect on A-31 cell growth (in words)” value in the assay on A-31 cells is on record as “not much affected”. The “inhibition of p21ras plasma membrane association (in words)” value in assay [5] is reported as “inhibited p21ras plasma membrane association”.
As for `CC[C@H](C)[C@H](NC(=O)[C@@H](NC(=O)[C@@H](N)CS)C(C)C)C(=O)N[C@@H](CCSC)C(=O)OC` [M-CVIM] (HELM PEPTIDE1{C.V.I.M.[CO[*:1]]}$$$$V2.0), the results for the IC50 in assay [4] (setting [11]) and in assay [2] (setting [7]) were 200 ± 58 µM and 4.5 µM, respectively.
Consider `CC[C@H](C)C(=O)O[C@H]1C[C@@H](C)C=C2C=C[C@H](C)[C@H](CC[C@@H]3C[C@@H](O)CC(=O)O3)[C@H]21` [Lovastatin, reference compound], for which the “inhibition of p21ras plasma membrane association (in words)” value in assay [5] is recorded as “inhibited p21ras membrane association”.
For the compound Cys-AMBA-Glu [C-AMBA-E], the results for the “reduction of ability to inhibit the enzyme relative to Cys-AMBA-Met” value in assay [3] (COLO-205) and in assay [1] (Daudi) were 24 fold and 13 fold, respectively. The IC50 in assay [3] (setting [8]) was determined as 1.42 µM; in assay [1] (setting [9]), 1.54 µM.
Turning to `CSCC[C@H](NC(=O)c1cccc(CNC(=O)[C@@H](N)CS)c1)C(=O)O` [C-AMBA-M, Cys-AMBA-Met], the results for the “increase in potency over CIIM” value in assay [3] (COLO-205) and in assay [1] (Daudi) were 8.8 fold and 6.9 fold, respectively. In addition, the “increase in potency over CVIM” value in assay [3] (COLO-205) came out at 3.3 fold; in assay [1] (Daudi), 1.6 fold. The “increase in potency over CVVM” value worked out at 7.7 fold in assay [3] (COLO-205) and 5.1 fold in assay [1] (Daudi). For the same compound, the IC50 in assay [3] (setting [8]) turned out to be 0.06 µM; in assay [3] (read-out: IC50, p21ras farnesyltransferase from COLO-205), 0.06 µM; in assay [1] (setting [6]), 0.12 µM; in assay [4] (setting [12]), 1500 µM; in assay [4] (setting [11]) it was 627 ± 178 µM; in assay [2] (setting [7]), 3.1 µM. Further, the IC50 in assay [2] (setting [10]) was 2 µM. Further, the “inhibition of p21ras plasma membrane association (in words)” value in assay [5] is reported as “did not inhibit p21ras plasma association”.
Take `N[C@@H](CS)C(=O)NCc1cccc(C(=O)N[C@@H](Cc2ccccc2)C(=O)O)c1` [C-AMBA-F, Cys-AMBA-Phe]: the IC50 in assay [3] (setting [8]) worked out at 0.53 µM; in assay [1] (setting [9]), 0.6 µM; in assay [1] (setting [6]) it was 0.6 µM.
`CC[C@H](C)[C@H](NC(=O)[C@@H](NC(=O)[C@@H](N)CS)[C@@H](C)CC)C(=O)N[C@@H](CCSC)C(=O)O` [CIIM, reference compound] (H-CIIM-OH): the results for the IC50 in assay [3] (setting [8]) and in assay [1] (setting [9]) were 0.53 µM and 0.83 µM, respectively.
With `CC[C@H](C)[C@H](NC(=O)[C@@H](NC(=O)[C@H](CSC(=O)OCc1ccccc1)NC(=O)OCc1ccccc1)C(C)C)C(=O)N[C@@H](CCSC)C(=O)OC` [BBM-VCIM] (Cbz-C(Cbz)VIM-OMe), the IC50 in assay [4] (setting [11]) worked out at 215 ± 66 µM.
